Legend:
Experiment in all cases: relative viability (nuclei count vs DMSO), 5 days (fraction); higher = more cells survive
Serdemetan + Trametinib = compound: c1ccc2c(CCNc3ccc(Nc4ccncc4)cc3)c[nH]c2c1 [Serdemetan] + CC(=O)Nc1cccc(-n2c(=O)n(C3CC3)c(=O)c3c(Nc4ccc(I)cc4F)n(C)c(=O)c(C)c32)c1 [Trametinib] (partner 0.02 µM)
Summary of the method: (§1)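 Lung cancer cell lines in 1536-well plates got either a single drug or a fixed anchor-drug dose together with five library-drug doses (not always all listed) in √10 steps, by pin tool, on the day after seeding. Nuclei were counted after 5 days, and relative viability is the treated-to-vehicle ratio of nuclei counts. Values are medians of duplicate plates.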

Selisistat + Dasatinib = compound: C1CC(C2=C(C1)C3=C(N2)C=CC(=C3)Cl)C(=O)N [Selisistat] + Cc1nc(Nc2ncc(C(=O)Nc3c(C)cccc3Cl)s2)cc(N2CCN(CCO)CC2)n1 [Dasatinib] (partner 0.075 µM)
Summary of the method: as §1

Selisistat + Bortezomib = compound: C1CC(C2=C(C1)C3=C(N2)C=CC(=C3)Cl)C(=O)N [Selisistat] + CC(C)C[C@H](NC(=O)[C@H](Cc1ccccc1)NC(=O)c1cnccn1)B(O)O [Bortezomib] (partner 0.002 µM)
Summary of the method: as §1

Serdemetan + Foretinib = compound: c1ccc2c(CCNc3ccc(Nc4ccncc4)cc3)c[nH]c2c1 [Serdemetan] + COc1cc2c(Oc3ccc(NC(=O)C4(C(=O)Nc5ccc(F)cc5)CC4)cc3F)ccnc2cc1OCCCN1CCOCC1 [Foretinib] (partner 0.25 µM)
Summary of the method: as §1

Row | Cell Line | relative viability (Serdemetan + Trametinib; first compound 0.04 µM) | relative viability (Serdemetan + Trametinib; first compound 0.1265 µM) | relative viability (Serdemetan + Trametinib; first compound 0.4 µM) | relative viability (Serdemetan + Trametinib; first compound 1.265 µM) | relative viability (Serdemetan + Trametinib; first compound 4 µM) | relative viability (Selisistat + Dasatinib; first compound 0.4 µM) | relative viability (Selisistat + Dasatinib; first compound 1.265 µM) | relative viability (Selisistat + Dasatinib; first compound 4 µM) | relative viability (Selisistat + Dasatinib; first compound 12.65 µM) | relative viability (Selisistat + Dasatinib; first compound 40 µM) | relative viability (Selisistat + Bortezomib; first compound 0.4 µM) | relative viability (Selisistat + Bortezomib; first compound 1.265 µM) | relative viability (Selisistat + Bortezomib; first compound 4 µM) | relative viability (Selisistat + Bortezomib; first compound 12.65 µM) | relative viability (Selisistat + Bortezomib; first compound 40 µM) | relative viability (Serdemetan + Foretinib; first compound 0.04 µM) | relative viability (Serdemetan + Foretinib; first compound 0.1265 µM) | relative viability (Serdemetan + Foretinib; first compound 0.4 µM) | relative viability (Serdemetan + Foretinib; first compound 1.265 µM) | relative viability (Serdemetan + Foretinib; first compound 4 µM)
1 | NCI-H838 | 0.47 | 0.538 | 0.555 | 0.526 | 0.575 | 0.273 | 0.293 | 0.263 | 0.279 | 0.285 | 0.803 | 0.73 | 0.603 | 0.878 | 1.01 | 1.03 | 0.983 | 1.02 | 0.951 | 1.09
2 | NCI-H1755 | 0.762 | 0.703 | 0.744 | 0.572 | 0.474 | 0.474 | 0.476 | 0.418 | 0.419 | 0.414 | 1.04 | 0.972 | 0.955 | 1.01 | 0.925 | 0.901 | 0.934 | 0.846 | 0.674 | 0.599
3 | HCC-78 | 0.725 | 0.731 | 0.796 | 0.688 | 0.552 | 0.486 | 0.628 | 0.293 | 0.421 | 0.414 | 0.515 | 0.471 | – | 0.489 | 0.514 | 0.531 | 0.524 | 0.463 | 0.422 | 0.426
4 | IA-LM | – | – | – | – | – | – | – | – | – | – | 0.867 | 0.735 | 0.758 | 0.682 | 0.881 | 1.04 | 1.06 | 0.877 | 0.999 | 0.414
5 | NCI-H322M | 0.502 | 0.528 | 0.488 | 0.427 | 0.431 | 0.266 | 0.259 | 0.243 | 0.26 | 0.26 | 1.36 | 1.25 | – | 1.42 | 1.39 | 0.946 | 0.887 | 0.909 | 0.963 | 0.481
6 | NCI-H3122 | 0.246 | 0.238 | 0.252 | 0.245 | 0.206 | 0.999 | 0.736 | 0.639 | 0.842 | 0.791 | 1 | 1 | 0.837 | 1.1 | 0.995 | 0.992 | 0.932 | 0.972 | – | 1.01
7 | COR-L23 | 0.616 | 0.606 | 0.617 | 0.502 | 0.449 | 0.523 | 0.583 | 0.579 | 0.529 | 0.494 | 0.981 | 1.02 | 1.09 | 0.829 | 0.863 | 0.989 | 1.01 | 1.07 | 0.847 | 0.843
8 | NCI-H2087 | 0.223 | 0.185 | 0.191 | 0.168 | 0.169 | 1.08 | 0.837 | – | 0.82 | 0.777 | 0.738 | 0.709 | 0.734 | 0.806 | 0.719 | 1.01 | 0.92 | 0.858 | 0.447 | 0.355
9 | NCI-H1793 | 0.447 | 0.375 | 0.346 | 0.227 | 0.267 | 0.359 | 0.394 | – | 0.426 | 0.344 | – | – | – | – | – | 0.663 | 0.716 | 0.446 | 0.363 | 0.245
10 | NCI-H1792 | 0.401 | 0.458 | 0.304 | 0.248 | 0.142 | 0.806 | 0.805 | – | 0.677 | 0.498 | 0.967 | 1 | – | 0.71 | 1.07 | – | – | – | – | –
11 | NCI-H522 | 0.678 | 0.698 | 0.87 | 0.702 | 0.612 | 0.736 | 0.644 | 0.784 | 0.803 | 0.759 | – | – | – | – | – | – | – | – | – | –
12 | NCI-H1299 | – | – | – | – | – | – | – | – | – | – | 1.07 | 1.07 | 1.05 | 1.03 | 1.02 | 1.05 | 1.07 | 1.02 | 0.92 | 0.755
13 | NCI-H1648 | – | 0.534 | 0.393 | 0.317 | 0.296 | – | – | – | – | – | – | – | – | – | – | – | – | – | – | –
14 | SK-MES-1 | 0.48 | 0.538 | 0.531 | 0.532 | 0.563 | 0.451 | 0.294 | 0.293 | 0.346 | 0.264 | – | – | – | – | – | 0.877 | 0.915 | 0.842 | 0.847 | 0.534
15 | NCI-H2342 | 0.818 | 0.84 | 1.12 | 0.789 | 0.669 | 0.312 | 0.339 | 0.297 | 0.33 | 0.363 | – | – | – | – | – | 1.22 | 1 | 0.882 | 0.504 | 0.592
16 | SW 900 | 0.636 | 0.63 | 0.874 | 0.8 | 0.519 | 0.664 | 0.409 | 0.641 | 0.496 | 0.791 | – | – | – | – | – | 0.79 | 0.552 | 0.928 | 0.687 | 0.821
17 | LK-2 | 0.697 | 0.79 | 0.809 | 0.752 | 0.757 | 0.211 | 0.307 | 0.322 | 0.266 | 0.287 | – | – | – | – | – | 1.29 | 1.13 | 1.47 | 1.16 | 0.41
18 | NCI-H1395 | 0.982 | 0.954 | 0.972 | 0.904 | 0.586 | 0.468 | 0.426 | 0.407 | 0.402 | 0.389 | – | – | – | – | – | 1 | 0.969 | 0.926 | 0.883 | 0.571
19 | A549 | – | – | – | – | – | – | – | – | – | – | – | – | – | – | – | 0.964 | 0.969 | 1.02 | 0.627 | 0.177
20 | NCI-H2170 | 0.912 | 0.988 | 0.87 | 0.9 | 0.944 | 0.468 | 0.47 | 0.521 | 0.563 | 0.63 | – | – | – | – | – | 1.02 | 0.97 | 1.05 | 0.637 | 1.14
21 | NCI-H1563 | – | – | – | – | – | 0.496 | 0.443 | 0.319 | 0.438 | 0.549 | 0.855 | 0.753 | 0.752 | 0.789 | 0.581 | 0.82 | 0.897 | 0.745 | 0.69 | 0.64
22 | ABC-1 | – | – | – | – | – | 0.553 | 0.469 | 0.589 | 0.588 | 0.509 | 0.317 | 0.327 | 0.312 | 0.383 | 0.267 | 0.855 | 1.08 | 0.766 | 0.604 | 0.418

— the supplement of paper PMC10307832
